Laboratory results as given in publication PMC10966990, “Rational design of a cyclohexanone dehydrogenase for enhanced α,β-desaturation and substrate specificity” (Chemical Science, 2024).

How the values were obtained:
[1] = target: T1, cyclohexanone dehydrogenase (CDH) (Alicycliphilus denitrificans, UniProt F4G7N3); assay: DCPIP colour change assay; assay type: biochemical; settings: 0.25 uM enzyme, 2 mM substrate, 75 uM DCPIP, 20 mM Tris-HCl pH 7.8
T1 construct: gene Alide2_4318; full gene in pET28a, N-terminal His6 tag, E. coli BL21(DE3); dimer
Target sequence in this assay (F4G7N3 entry or part of it W94A, form open): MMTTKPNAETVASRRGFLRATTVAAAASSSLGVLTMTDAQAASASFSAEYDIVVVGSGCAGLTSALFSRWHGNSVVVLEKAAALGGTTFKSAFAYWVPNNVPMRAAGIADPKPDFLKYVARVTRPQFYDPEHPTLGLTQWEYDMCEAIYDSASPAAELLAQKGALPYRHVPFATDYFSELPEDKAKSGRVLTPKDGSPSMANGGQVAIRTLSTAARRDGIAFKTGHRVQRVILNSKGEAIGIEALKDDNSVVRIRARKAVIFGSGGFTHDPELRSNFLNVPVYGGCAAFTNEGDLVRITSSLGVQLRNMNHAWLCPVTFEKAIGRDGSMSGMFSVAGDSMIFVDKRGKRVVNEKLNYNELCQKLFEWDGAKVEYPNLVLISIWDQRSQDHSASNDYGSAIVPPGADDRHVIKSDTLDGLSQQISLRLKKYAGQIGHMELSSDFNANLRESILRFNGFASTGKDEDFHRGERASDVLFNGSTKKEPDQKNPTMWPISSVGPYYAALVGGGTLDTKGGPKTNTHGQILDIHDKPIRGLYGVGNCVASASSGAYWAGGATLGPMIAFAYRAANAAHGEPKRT

[2] = target: T2, cyclohexanone dehydrogenase (CDH) (Alicycliphilus denitrificans, UniProt F4G7N3, Y176F, form not given); assay: X-ray crystal structure, […] A; assay type: binding; settings: crystals grown with 10 mM cyclohexanone; product modelled in active site next to FAD, further molecules elsewhere
T2 construct: gene Alide2_4318; full gene in pET28a, N-terminal His6 tag, E. coli BL21(DE3); dimer

[3] = target: T1, cyclohexanone dehydrogenase (CDH); assay: X-ray crystal structure, […] A; assay type: binding; settings: covalent; C8M of FAD 1.84 A from S-gamma of Cys305
[4] = substrate: O=C1CCCCC1; assay: DCPIP reduction assay, Michaelis-Menten; assay type: biochemical, Alicycliphilus denitrificans; settings: 76 nM enzyme, 60 uM DCPIP, 20 mM Tris-HCl pH 7.8
[5] = substrate: CC1CCCC(=O)C1; assay: DCPIP reduction assay, Michaelis-Menten; assay type: biochemical, Alicycliphilus denitrificans; settings: 76 nM enzyme, 60 uM DCPIP, 20 mM Tris-HCl pH 7.8, low aqueous solubility of substrate, caution stated
purified protein = substrate: CC1(C)CCC(=O)CC1; assay: purified protein; settings: pH 7.8

T2 sequence (F4G7N3 entry or part of it Y176F, form open): as the sequence (F4G7N3 entry or part of it W94A, form open) above, with A94W, Y176F counted along it

CC1CCCC(=O)C1 (stereo not shown) [compound 2, 3-methylcyclohexanone] was tested, and the “DCPIP colour change assay” value [1] was “The W113A variant showed highest activity on 3-methylcyclohexanone”.

For O=C1CCc2ccccc2O1 [compound 5, dihydrocoumarin], the “DCPIP colour change assay” value [1] was “the W113A variant, but not WT CDH, with dihydrocoumarin”.

With O=C1C=CCCC1 [compound 10, 2-cyclohexen-1-one] the “X-ray crystal structure, 1.33 A” value [2] was 2-cyclohexen-1-one was subsequently modelled to produce the Y195F complex structure.

With Cc1cc2nc3c(=O)[nH]c(=O)nc-3n(C[C@H](O)[C@H](O)[C@H](O)COP(=O)(O)OP(=O)(O)OC[C@H]3O[C@@H](n4cnc5c(N)ncnc54)[C@H](O)[C@@H]3O)c2cc1C [flavin adenine dinucleotide] the “X-ray crystal structure, 1.86 A” value [3] was “The FAD cofactor was found to occupy a deep positively charged channel”.

B1: cyclohexanone dehydrogenase (CDH) (Alicycliphilus denitrificans K601) (protein)
chain: MMTTKPNAETVASRRGFLRATTVAAAASSSLGVLTMTDAQAASASFSAEYDIVVVGSGCAGLTSALFSRWHGNSVVVLEKAAALGGTTFKSAFWYWVPNNVPMRAAGIADPKPDFLKYVARVTRPQFYDPEHPTLGLTQWEYDMCEAIYDSASPAAELLAQKGALPYRHVPFATDYFSELPEDKAKSGRVLTPKDGSPSMANGGQVAIRTLSTAARRDGIAFKTGHRVQRVILNSKGEAIGIEALKDDNSVVRIRARKAVIFGSGGFTHDPELRSNFLNVPVYGGCAAFTNEGDLVRITSSLGVQLRNMNHAWLCPVTFEKAIGRDGSMSGMFSVAGDSMIFVDKRGKRVVNEKLNYNELCQKLFEWDGAKVEYPNLVLISIWDQRSQDHSASNDYGSAIVPPGADDRHVIKSDTLDGLSQQISLRLKKYAGQIGHMELSSDFNANLRESILRFNGFASTGKDEDFHRGERASDVLFNGSTKKEPDQKNPTMWPISSVGPYYAALVGGGTLDTKGGPKTNTHGQILDIHDKPIRGLYGVGNCVASASSGAYWAGGATLGPMIAFAYRAANAAHGEPKRT
notes: full gene in pET28a, N-terminal His6 tag, E. coli BL21(DE3); dimer
B1 gave a Km [4] of 0.37 ± 0.04 mM, a Km [5] of 9.31 ± 1.99 mM and a Km (purified protein) of 25.62 ± 7.68 mM.
